# Data published in US20260125389A1, “MEMBRANE-ASSOCIATED TYROSINE AND THREONINE KINASE INHIBITOR AND USE THEREOF” (HAINAN SIMCERE ZAIMING PHARMACEUTICAL CO., LTD., priority 2022, published 2026).
# pIC50: −log10 of the molar value.
# Test system: HCC1569 cells
# Experiment: Inhibition of tumor cell proliferation (CTG, HCC1569)
# Type: cell-based
# Conditions: Homo sapiens, 168 h, 7 days incubation, CTG readout, read-out: IC50 of compounds for inhibition of HCC1569 cell growth
# Protocol: Experimental principle: The compound was incubated with tumor cells for 7 days, and ATP in viable cells was quantified using the CTG kit from Promega to evaluate the effect of the compound on tumor cell proliferation.
# Experimental method: The cultured cells were resuspended after being rinsed with PBS (for adherent cells) and digested with 0.25% Trypsin-EDTA, followed by cell counting to determine cell density and viability. 3000 HCC1569 cells/well were diluted with RPMI Medium 1640 containing 10% FBS, added to a 96-well plate (90 μL/well), and cultured in an incubator at 37° C. with 5% CO2 for 24 h. The test compound was diluted to different concentrations in dimethyl sulfoxide (DMSO) and added to a 96-well plate. Thus, the final concentration of the compound in the reaction system started at 25 μM and was subjected to a 4-fold serial dilution, with the final DMSO concentration maintained at 0.25%. The compound and cells were further incubated at 37° C. with 5% CO2 for 7 days. 50 μL/well of CTG was then added to measure the inhibitory effect of the compound on tumor cell growth, and the inhibition rate and half-maximal inhibitory concentration (IC50) were calculated.
# The % compound inhibition was calculated and fitted using XLfit software to obtain the IC50 of the compound.
# Blank wells and DMSO wells were set up. The blank well contained 100 μL of RPMI Medium 1640 with 10% FBS, where the inhibition rate of the compound on tumor cell growth was considered 100%. The DMSO well contained 0.25% DMSO added to the cell well, where the inhibition rate of the compound on tumor cell growth was considered 0%.
row,Compound,pIC50
1,"Cc1nc2c3c(c(N)n(-c4c(C)ccc(O)c4C)c3n1)C(=O)NCc1c-2ccnc1C1CC1 [Compound 46, 2-amino-6-cyclopropyl-1-(3-hydroxy-2,6-dimethylphenyl)-11-methyl-4,5-dihydro-1,4,7,10,12-pentaazabenzo[4,5]cyclooctatetraeno[1,2,3-cd]inden-3(1H)-one]",6.95
2,"Cc1nc2c3c(c(N)n(-c4c(C)ccc(O)c4C)c3n1)C(=O)NCc1c(C#N)cccc1-2 [Compound 27, 2-amino-1-(3-hydroxy-2,6-dimethylphenyl)-11-methyl-3-oxo-1,3,4,5-tetrahydro-1,4,10,12-tetraazabenzo[4,5]cyclooctatetraeno[1,2,3-cd]indene-6-carbonitrile]",6.88
3,"Cc1nc2c3c(c(N)n(-c4c(C)ccc(O)c4C)c3n1)C(=O)NCc1nc(CO)ccc1-2 [Compound 32, 2-amino-1-(3-hydroxy-2,6-dimethylphenyl)-7-(hydroxymethyl)-11-methyl-4,5-dihydro-1,4,6,10,12-pentaazabenzo[4,5]cyclooctatetraeno[1,2,3-cd]inden-3(1H)-one]",6.10
4,"Cc1nc2c3c(c(N)n(-c4c(C)ccc(O)c4C)c3n1)C(=O)NCc1c-2ccnc1OCF [Compound 40, 2-amino-6-(fluoromethoxy)-1-(3-hydroxy-2,6-dimethylphenyl)-11-methyl-4,5-dihydro-1,4,7,10,12-pentaazabenzo[4,5]cyclooctatetraeno[1,2,3-cd]inden-3(1H)-one]",7.06
5,"Cc1nc2c3c(c(N)n(-c4c(C)ccc(O)c4C)c3n1)C(=O)Nc1c(F)cncc1-2 [Compound 16, 5-amino-8-fluoro-4-(3-hydroxy-2,6-dimethylphenyl)-2-methyl-4,7-dihydro-6H-1,3,4,7,10-pentaazadibenzo[cd,f]azulen-6-one]",6.58
6,"Cc1nc2c3c(c(N)n(-c4c(C)ccc(O)c4C)c3n1)C(=O)NCc1cnccc1-2 [Compound 5, 2-amino-1-(3-hydroxy-2,6-dimethylphenyl)-11-methyl-4,5-dihydro-1,4,7,10,12-pentaazabenzo[4,5]cyclooctatetraeno[1,2,3-cd]inden-3(1H)-one]",6.27
7,"Cc1nc2c3c(c(N)n(-c4c(C)ccc(O)c4C)c3n1)C(=O)NCc1c-2ccnc1OC(F)(F)F [Compound 41, 2-amino-1-(3-hydroxy-2,6-dimethylphenyl)-11-methyl-6-(trifluoromethoxy)-4,5-dihydro-1,4,7,10,12-pentaazabenzo[4,5]cyclooctatetraeno[1,2,3-cd]inden-3(1H)-one]",7.06
8,"Cc1nc2c3c(c(N)n(-c4c(C)ccc(O)c4C)c3n1)C(=O)Nc1nn(CC(F)(F)F)cc1-2 [Compound 14, 2-amino-1-(3-hydroxy-2,6-dimethylphenyl)-9-methyl-6-(2,2,2-trifluoroethyl)-4,6-dihydro-1,4,5,6,8,10-hexaazabenzo[cd]cyclopenta[f]azulen-3(1H)-one]",6.60
9,"Cc1nc2c3c(c(N)n(-c4c(C)ccc(O)c4C)c3n1)C(=O)NCc1nc(C3CC3)ccc1-2 [Compound 28, 2-amino-7-cyclopropyl-1-(3-hydroxy-2,6-dimethylphenyl)-11-methyl-4,5-dihydro-1,4,6,10,12-pentaazabenzo[4,5]cyclooctatetraeno[1,2,3-cd]inden-3(1H)-one]",7.15
10,"Cc1nc2c3c(c(N)n(-c4c(C)ccc(O)c4C)c3n1)C(=O)NCc1c-2ccnc1OC(F)F [Compound 39, 2-amino-6-(difluoromethoxy)-1-(3-hydroxy-2,6-dimethylphenyl)-11-methyl-4,5-dihydro-1,4,7,10,12-pentaazabenzo[4,5]cyclooctatetraeno[1,2,3-cd]inden-3(1H)-one]",7.09
11,"COc1c(F)ccc2c1CNC(=O)c1c(N)n(-c3c(C)ccc(O)c3C)c3nc(C)nc-2c13 [Compound 30, 2-amino-7-fluoro-1-(3-hydroxy-2,6-dimethylphenyl)-6-methoxy-11-methyl-4,5-dihydro-1,4,10,12-tetraazabenzo[4,5]cyclooctatetraeno[1,2,3-cd]inden-3(1H)-one]",6.51
12,"Cc1nc2c3c(c(N)n(-c4c(C)ccc(O)c4C)c3n1)C(=O)NCc1ccccc1-2 [Compound 3, 2-amino-1-(3-hydroxy-2,6-dimethylphenyl)-11-methyl-4,5-dihydro-1,4,10,12-tetraazabenzo[4,5]cyclooctatetraeno[1,2,3-cd]inden-3(1H)-one]",6.53
13,"Cc1nc2c3c(c(N)n(-c4c(C)ccc(O)c4C)c3n1)C(=O)NCc1ncccc1-2 [Compound 4, 2-amino-1-(3-hydroxy-2,6-dimethylphenyl)-11-methyl-4,5-dihydro-1,4,6,10,12-pentaazabenzo[4,5]cyclooctatetraeno[1,2,3-cd]inden-3(1H)-one]",6.62
14,"Cc1nc2c3c(c(N)n(-c4c(C)ccc(O)c4C)c3n1)C(=O)NCc1c-2ccnc1C [Compound 36, 2-amino-1-(3-hydroxy-2,6-dimethylphenyl)-6,11-dimethyl-4,5-dihydro-1,4,7,10,12-pentaazabenzo[4,5]cyclooctatetraeno[1,2,3-cd]inden-3(1H)-one]",7.20
15,"Cc1ccc2c(n1)CNC(=O)c1c(N)n(-c3c(C)ccc(O)c3C)c3nc(C)nc-2c13 [Compound 9, 2-amino-1-(3-hydroxy-2,6-dimethylphenyl)-7,11-dimethyl-4,5-dihydro-1,4,6,10,12-pentaazabenzo[4,5]cyclooctatetraeno[1,2,3-cd]inden-3(1H)-one]",6.68

# Compounds with a higher pIC50, results first:
row,pIC50,Compound
1,7.49,"CCOc1nccc2c1CNC(=O)c1c(N)n(-c3c(C)ccc(O)c3C)c3nc(C)nc-2c13 [Compound 47, 2-amino-6-ethoxy-1-(3-hydroxy-2,6-dimethylphenyl)-11-methyl-4,5-dihydro-1,4,7,10,12-pentaazabenzo[4,5]cyclooctatetraeno[1,2,3-cd]inden-3(1H)-one]"
2,7.26,"Cc1ccc(O)c(C)c1-n1c(N)c2c3c(c(C)c(C)nc31)-c1nn(C)cc1NC2=O [Compound 44, 5-amino-4-(3-hydroxy-2,6-dimethylphenyl)-1,2,9-trimethyl-7,9-dihydro-3,4,7,9,10-pentaazabenzo[cd]cyclopenta[f]azulen-6(4H)-one]"
3,7.23,"COc1cccc2c1CNC(=O)c1c(N)n(-c3c(C)ccc(O)c3C)c3nc(C)nc-2c13 [Compound 11, 2-amino-1-(3-hydroxy-2,6-dimethylphenyl)-6-methoxy-11-methyl-4,5-dihydro-1,4,10,12-tetraazabenzo[4,5]cyclooctatetraeno[1,2,3-cd]inden-3(1H)-one]"
4,7.60,"COc1nccc2c1CNC(=O)c1c(N)n(-c3c(C)ccc(O)c3C)c3nc(C)nc-2c13 [Compound 23, 2-amino-1-(3-hydroxy-2,6-dimethylphenyl)-6-methoxy-11-methyl-4,5-dihydro-1,4,7,10,12-pentaazabenzo[4,5]cyclooctatetraeno[1,2,3-cd]inden-3(1H)-one]"
5,7.96,"Cc1nc2c3c(c(N)n(-c4c(C)ccc(O)c4C)c3n1)C(=O)Nc1cnccc1-2 [Compound 18, 5-amino-4-(3-hydroxy-2,6-dimethylphenyl)-2-methyl-4,7-dihydro-6H-1,3,4,7,9-pentaazadibenzo[cd,f]azulen-6-one]"
6,7.33,"Cc1nc2c3c(c(N)n(-c4c(C)ccc(O)c4C)c3n1)C(=O)Nc1c-2cnn1C(F)F [Compound 42, 5-amino-8-(difluoromethyl)-4-(3-hydroxy-2,6-dimethylphenyl)-2-methyl-7,8-dihydro-1,3,4,7,8,9-hexaazabenzo[cd]cyclopenta[f]azulen-6(4H)-one]"
7,7.68,"Cc1nc2c3c(c(N)n(-c4c(C)ccc(O)c4C)c3n1)C(=O)NCc1c-2ccc(F)c1C#N [Compound 49, 2-amino-7-fluoro-1-(3-hydroxy-2,6-dimethylphenyl)-11-methyl-3-oxo-1,3,4,5-tetrahydro-1,4,10,12-tetraazabenzo[4,5]cyclooctatetraeno[1,2,3-cd]inden-6-carbonitrile]"
8,7.59,"Cc1nc2c3c(c(N)n(-c4c(C)ccc(O)c4C)c3n1)C(=O)Nc1cccnc1-2 [Compound 20, 5-amino-4-(3-hydroxy-2,6-dimethylphenyl)-2-methyl-4,7-dihydro-6H-1,3,4,7,11-pentaazadibenzo[cd,f]azulen-6-one]"
9,7.30,"Cc1nc2c3c(c(N)n(-c4c(C)ccc(O)c4C)c3n1)C(=O)Nc1ccncc1-2 [Compound 19, 5-amino-4-(3-hydroxy-2,6-dimethylphenyl)-2-methyl-4,7-dihydro-6H-1,3,4,7,10-pentaazadibenzo[cd,f]azulen-6-one]"
10,7.56,"Cc1nc2c3c(c(N)n(-c4c(C)ccc(O)c4C)c3n1)C(=O)Nc1nn(C)cc1-2 [Compound 13, 2-amino-1-(3-hydroxy-2,6-dimethylphenyl)-6,9-dimethyl-4,6-dihydro-1,4,5,6,8,10-hexaazabenzo[cd]cyclopenta[f]azulen-3(1H)-one]"
11,7.61,"Cc1nc2c3c(c(N)n(-c4c(C)ccc(O)c4C)c3n1)C(=O)Nc1ncccc1-2 [Compound 17, 5-amino-4-(3-hydroxy-2,6-dimethylphenyl)-2-methyl-4,7-dihydro-6H-1,3,4,7,8-pentaazadibenzo[cd,f]azulen-6-one]"
12,7.47,"Cc1nc2c3c(c(N)n(-c4c(C)ccc(O)c4C)c3n1)C(=O)Nc1sncc1-2 [Compound 37, 5-amino-4-(3-hydroxy-2,6-dimethylphenyl)-2-methyl-4,7-dihydro-6H-8-thia-1,3,4,7,9-pentaazabenzo[cd]cyclopenta[f]azulen-6-one]"
